Assay results published in patent US7384629B2, “Biological control of nematodes with Hirsutella minnesotensis” (Regents of the University of Minnesota, priority 2000, dated 2008).
Where two headings read alike, the source gives them in different places.

Tests used:
Hirsutella rhossiliensis [1] = settings: for Growth rate mm-in-diam, on agar: named vitamin excluded from medium with all other vitamins; for Growth rate mm-in-diam, on agar / Sporulation 10^3/cm^2, on agar / growth in liquit culture (visual rating): 5 weeks; for Spore germination %, on agar / Sporulation 10^3/cm^2, on agar / growth in liquit culture (visual rating): named vitamin excluded
Hirsutella rhossiliensis [2] = experiment: Effect of nitrogen source on growth, sporulation and spore germination; settings: for Growth mm-in-diam, on agar: nitrogen source 0.3296 g/L nitrogen; for Growth mm-in-diam, on agar / growth in liquit culture (visual rating) / Sporulation 10^3/cm^2, on agar: 5 weeks; for Spore germination %, on agar / growth in liquit culture (visual rating) / Sporulation 10^3/cm^2, on agar: nitrogen source

| Structure (SMILES) | Growth rate mm-in-diam, on agar (Hirsutella rhossiliensis [1]; isolate ATCC46487) [mm-in-diam] | Growth rate mm-in-diam, on agar (Hirsutella rhossiliensis [1]; isolate JA16-1) [mm-in-diam] | Growth rate mm-in-diam, on agar (Hirsutella rhossiliensis [1]; isolate OWVT-1) [mm-in-diam] | Spore germination %, on agar (Hirsutella rhossiliensis [1]; isolate ATCC46487) [%] | Sporulation 10^3/cm^2, on agar (Hirsutella rhossiliensis [1]; isolate ATCC46487) | Spore germination %, on agar (Hirsutella rhossiliensis [1]; isolate JA16-1) [%] | Sporulation 10^3/cm^2, on agar (Hirsutella rhossiliensis [1]; isolate JA16-1) | Spore germination %, on agar (Hirsutella rhossiliensis [1]; isolate OWVT-1) [%] | Sporulation 10^3/cm^2, on agar (Hirsutella rhossiliensis [1]; isolate OWVT-1) | growth in liquit culture (visual rating) (Hirsutella rhossiliensis [1]; isolate JA16-1) | further results |
| --- | --- | --- | --- | --- | --- | --- | --- | --- | --- | --- | --- |
| Cc1ncc(C[n+]2csc(CCO)c2C)c(N)n1 [Thiamine (VB1)] | 38.5 | 20.3 | 24.7 | 75.6 | 30.1 10^3/cm^2 | 91.1 | 30.4 10^3/cm^2 | 58.9 | 15.7 10^3/cm^2 | – | – |
| O=C(O)c1cccnc1 [Nicotinic acid] | 40.5 | 20.0 | 27.7 | 77.8 | 30.1 10^3/cm^2 | 94.4 | 12.2 10^3/cm^2 | 57.8 | 10.7 10^3/cm^2 | I | – |
| Cc1ncc(CO)c(CO)c1O [Pyridoxine (VB6)] | 40.5 | 17.2 | 29.5 | 74.4 | 31.1 10^3/cm^2 | 90.0 | 16.5 10^3/cm^2 | 50.0 | 13.0 10^3/cm^2 | I | growth in liquit culture (visual rating) (Hirsutella rhossiliensis [1]; isolate ATCC46487): III (III = hyphae growth or colonies form a pellet, less than 2.5 ml) |
| Nc1ccc(C(=O)O)cc1 [p-Amino-benzoic acid (PABA)] | 41.5 | 16.7 | 28.3 | 82.2 | 29.9 10^3/cm^2 | 84.4 | 35.1 10^3/cm^2 | 51.1 | 14.2 10^3/cm^2 | I | – |
| O[C@H]1[C@H](O)[C@@H](O)[C@H](O)[C@@H](O)[C@H]1O [myo-inositol] | 40.8 | 18.3 | 31.5 | 72.2 | 41.9 10^3/cm^2 | 84.4 | 16.7 10^3/cm^2 | 64.4 | 8.3 10^3/cm^2 | I | – |
| CC(C)(CO)C(O)C(=O)NCCC(=O)O (racemic) [DL-pantothenic acid] | 39.5 | 18.8 | 29.3 | 72.2 | 28.6 10^3/cm^2 | 88.9 | 17.1 10^3/cm^2 | 55.6 | 9.9 10^3/cm^2 | I | – |
| Nc1nc2ncc(CNc3ccc(C(=O)N[C@@H](CCC(=O)O)C(=O)O)cc3)nc2c(=O)[nH]1 [Folic acid] | 39.3 | 19.7 | 28.7 | 82.2 | 59.7 10^3/cm^2 | 87.8 | 24.2 10^3/cm^2 | 61.1 | 15.4 10^3/cm^2 | I | – |
| O=C(O)CCCC[C@@H]1SC[C@@H]2NC(=O)N[C@@H]21 [d-Biotin (V.H)] | 39.7 | 16.3 | 27.7 | 80.0 | 29.5 10^3/cm^2 | 90.0 | 14.1 10^3/cm^2 | 50.0 | 11.7 10^3/cm^2 | I | – |
| Cc1cc2nc3c(=O)[nH]c(=O)nc-3n(C[C@H](O)[C@H](O)[C@H](O)CO)c2cc1C [Riboflavin, UPS (VB2)] | 41.0 | 20.2 | 30.2 | 91.1 | 30.6 10^3/cm^2 | 85.6 | 13.2 10^3/cm^2 | 60.0 | 11.1 10^3/cm^2 | I | growth in liquit culture (visual rating) (Hirsutella rhossiliensis [1]; isolate OWVT-1): I |
| C[C@@H](O)[C@H](N)C(=O)O (racemic) [DL-Threonine] | – | – | – | – | – | – | – | – | – | – | Growth mm-in-diam, on agar (Hirsutella rhossiliensis [2]; isolate ATCC46487): 25.4 mm-in-diam; Growth mm-in-diam, on agar (Hirsutella rhossiliensis [2]; isolate JA16-1): 8.3 mm-in-diam; Growth mm-in-diam, on agar (Hirsutella rhossiliensis [2]; isolate OWVT-1): 9.0 mm-in-diam; Spore germination %, on agar (Hirsutella rhossiliensis [2]; isolate ATCC46487): 93.3%; Spore germination %, on agar (Hirsutella rhossiliensis [2]; isolate JA16-1): 83.3%; growth in liquit culture (visual rating) (Hirsutella rhossiliensis [2]; isolate JA16-1): IV (IV = the pellet diameter larger than 1 cm, but the total volume distribution less than 5 ml); Spore germination %, on agar (Hirsutella rhossiliensis [2]; isolate OWVT-1): 48.9%; growth in liquit culture (visual rating) (Hirsutella rhossiliensis [2]; isolate OWVT-1): III (III = hyphae growth or colonies form a pellet, less than 2.5 ml) |
| N[C@@H](Cc1c[nH]cn1)C(=O)O [L-Histidine] | – | – | – | – | – | – | – | – | – | – | Growth mm-in-diam, on agar (Hirsutella rhossiliensis [2]; isolate ATCC46487): 36.3 mm-in-diam; Growth mm-in-diam, on agar (Hirsutella rhossiliensis [2]; isolate JA16-1): 8.5 mm-in-diam; Growth mm-in-diam, on agar (Hirsutella rhossiliensis [2]; isolate OWVT-1): 12.8 mm-in-diam; Spore germination %, on agar (Hirsutella rhossiliensis [2]; isolate ATCC46487): 82.2%; Sporulation 10^3/cm^2, on agar (Hirsutella rhossiliensis [2]; isolate ATCC46487): 1.8 10^3/cm^2; Spore germination %, on agar (Hirsutella rhossiliensis [2]; isolate JA16-1): 82.2%; Sporulation 10^3/cm^2, on agar (Hirsutella rhossiliensis [2]; isolate JA16-1): 3.4 10^3/cm^2; Spore germination %, on agar (Hirsutella rhossiliensis [2]; isolate OWVT-1): 65.6%; Sporulation 10^3/cm^2, on agar (Hirsutella rhossiliensis [2]; isolate OWVT-1): 2.1 10^3/cm^2; growth in liquit culture (visual rating) (Hirsutella rhossiliensis [2]; isolate OWVT-1): III (III = hyphae growth or colonies form a pellet, less than 2.5 ml) |
| O=[N+]([O-])[O-].[Na+] [NaNO3] | – | – | – | – | – | – | – | – | – | – | Growth mm-in-diam, on agar (Hirsutella rhossiliensis [2]; isolate ATCC46487): 39.2 mm-in-diam; Growth mm-in-diam, on agar (Hirsutella rhossiliensis [2]; isolate JA16-1): 15.3 mm-in-diam; Growth mm-in-diam, on agar (Hirsutella rhossiliensis [2]; isolate OWVT-1): 21.7 mm-in-diam; Spore germination %, on agar (Hirsutella rhossiliensis [2]; isolate ATCC46487): 86.7%; Sporulation 10^3/cm^2, on agar (Hirsutella rhossiliensis [2]; isolate ATCC46487): 10.0 10^3/cm^2; growth in liquit culture (visual rating) (Hirsutella rhossiliensis [2]; isolate ATCC46487): IV (IV = the pellet diameter larger than 1 cm, but the total volume distribution less than 5 ml); Spore germination %, on agar (Hirsutella rhossiliensis [2]; isolate JA16-1): 73.3%; Sporulation 10^3/cm^2, on agar (Hirsutella rhossiliensis [2]; isolate JA16-1): 6.4 10^3/cm^2; growth in liquit culture (visual rating) (Hirsutella rhossiliensis [2]; isolate JA16-1): I; Spore germination %, on agar (Hirsutella rhossiliensis [2]; isolate OWVT-1): 55.6%; Sporulation 10^3/cm^2, on agar (Hirsutella rhossiliensis [2]; isolate OWVT-1): 35.9 10^3/cm^2 |
